The subject of one assay is isolated rat hearts. The assay is described as follows: Myocardial infarct size in isolated rat heart, global ischemia/reperfusion (Langendorff). Particulars: 1 μM; 30 min global ischemia, 120 min reperfusion; vs vehicle. The procedure:
Our experiment conforms to the National Institutes of Health Guide for the Care and Use of Laboratory Animals (NIH Pub. No. 85-23, Revised 1996) and also to the EU directive guideline for the care and use of laboratory animals published by the European Union (2010/63/EU) and was approved by the local ethics committee of the University of Szeged. Eight to ten week-old male Wistar rats weighing 300–350 g (Toxicoop Ltd., Budapest, Hungary) were anesthetized intraperitoneally with 60 mg/kg pentobarbital sodium (Euthasol, Produlab Pharma, Raamsdonksveer, The Netherlands). After administration of 500 U/kg heparin through the femoral vein, the heart was isolated and perfused according to Langendorff with oxygenated Krebs-Henseleit buffer at 37°C as previously described (Turan et al., [2006]). […] Heart rate and coronary flow were monitored throughout the perfusion protocol. […]
At the end of the 2-h reperfusion, the right ventricle was removed, hearts were frozen, cut into six 1-mm-thick slices, and incubated in 1% triphenyl-tetrazolium chloride (Sigma-Aldrich; St. Louis, MO) at 37°C to delineate infarcted tissue. Slices were then fixed and quantified by planimetry using Infarctsize™ 2.5 software (Pharmahungary, Szeged, Hungary) (Fekete et al., [2013]). Infarct size was expressed as a percentage of the left ventricle.

The next assay deals with MMP-9 (Homo sapiens, UniProt P14780). The experiment in a line: MMP-9 inhibition (inhibitory profile). Particulars: Table 2. It is filed as biochemical. The protocol:
(§1) The compounds were measured for MMP-1, 2, 9, 13 to determine their inhibitory profile. Efficiency Index amplifies the two major required effects, selectivity against MMP-1 and the inhibitory activity.

For a further assay, the target named is T1, MMP-1 (Homo sapiens, UniProt P03956).
T1 sequence (P03956 100-469): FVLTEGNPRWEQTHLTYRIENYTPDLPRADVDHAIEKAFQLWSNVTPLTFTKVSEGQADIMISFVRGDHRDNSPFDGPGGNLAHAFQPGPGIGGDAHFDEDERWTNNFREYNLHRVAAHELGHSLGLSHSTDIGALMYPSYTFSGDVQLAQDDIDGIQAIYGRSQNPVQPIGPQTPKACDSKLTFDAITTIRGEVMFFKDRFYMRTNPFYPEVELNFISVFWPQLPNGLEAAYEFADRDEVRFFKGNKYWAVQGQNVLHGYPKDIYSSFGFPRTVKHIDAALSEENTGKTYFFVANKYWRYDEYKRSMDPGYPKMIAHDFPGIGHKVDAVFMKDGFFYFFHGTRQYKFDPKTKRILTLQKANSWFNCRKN
The assay is described as follows: MMP-1 inhibition (inhibitory profile). It is filed as biochemical. Conditions: Table 2. The procedure:
as §1

A further assay addresses MMP-13 (Homo sapiens, UniProt P45452). The assay is described as follows: MMP-13 inhibition (inhibitory profile). It is filed as biochemical. Particulars: Table 2. The protocol: as §1
In assay [1] the target is T2, Human MMP-2 catalytic domain (Homo sapiens, UniProt P08253, DEL222-396).
T2 construct: Human MMP-2 catalytic domain (residues 110-221, 397-455); made in house
T2 sequence (P08253 with tags, fused parts or gaps DEL222-396 limits assumed): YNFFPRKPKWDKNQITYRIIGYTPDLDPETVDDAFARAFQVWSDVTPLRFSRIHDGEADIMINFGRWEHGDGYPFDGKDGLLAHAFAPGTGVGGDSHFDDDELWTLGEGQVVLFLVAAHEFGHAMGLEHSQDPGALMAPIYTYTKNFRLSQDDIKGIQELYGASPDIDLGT
The assay is described as follows: Fluorometric MMP-2 inhibition assay (MTS), catalytic domain. It is filed as biochemical. The protocol:
In vitro MMP-2 activity was then measured, using a fluorometric assay in a 384 well format. Human MMP-2 catalytic domain (residues 110-221, 397-455) (Feng et al., [2000]) was expressed in E. coli in form of inclusion bodies. The protein was refolded and then purified by means of Ni-NTA affinity and anion exchange chromatography. Inhibition assays were carried out in 50 mM Tris, 5 mM CaCl2, 300 mM NaCl, 20 μM ZnSO4, pH = 7.5 buffer. For inhibition studies the catalytic domain of the enzyme was pre-incubated with varying amount of inhibitor for 30 min. […] After 1 h incubation at 37°C the fluorescence was detected using a Wallac 1420 Victor2 microplate reader at 320 nm/405 nm Ex/Em wavelength. As an alternative substrate we also used 5-FAM-Pro-Leu-Gly-Leu-Dap(QXL™ 520)-Ala-Arg-NH2, where the fluorescence was detected at 485 nm/520 nm. For each inhibitor candidate, the percentage of inhibition was determined in duplicate experiments at six inhibitor concentrations, chosen to observe a 5–95% range of inhibition.
Since hydroxamic acids are reported as the primary zinc-binding motif, we intended to select such a library from the AMRI 200,000 member non-exclusive compound repository as a starting point of our drug discovery efforts. Since only a few compounds were available in the repository as hydroxamic acids and the conversion of acids to hydroxamic acids were not applicable to HT parallel synthesis, we decided first to select free acids from the AMRI's compound collection. […] The selected acids were screened in a fluorescent assay using a recombinant human MMP-2 catalytic fragment and a synthetic peptide substrate. […] The hydroxamic acid pairs of the previously measured acids were then tested.

pIC50: −log10 of the molar value.

Sequence of MMP-9 (P14780 94-707, species assumed): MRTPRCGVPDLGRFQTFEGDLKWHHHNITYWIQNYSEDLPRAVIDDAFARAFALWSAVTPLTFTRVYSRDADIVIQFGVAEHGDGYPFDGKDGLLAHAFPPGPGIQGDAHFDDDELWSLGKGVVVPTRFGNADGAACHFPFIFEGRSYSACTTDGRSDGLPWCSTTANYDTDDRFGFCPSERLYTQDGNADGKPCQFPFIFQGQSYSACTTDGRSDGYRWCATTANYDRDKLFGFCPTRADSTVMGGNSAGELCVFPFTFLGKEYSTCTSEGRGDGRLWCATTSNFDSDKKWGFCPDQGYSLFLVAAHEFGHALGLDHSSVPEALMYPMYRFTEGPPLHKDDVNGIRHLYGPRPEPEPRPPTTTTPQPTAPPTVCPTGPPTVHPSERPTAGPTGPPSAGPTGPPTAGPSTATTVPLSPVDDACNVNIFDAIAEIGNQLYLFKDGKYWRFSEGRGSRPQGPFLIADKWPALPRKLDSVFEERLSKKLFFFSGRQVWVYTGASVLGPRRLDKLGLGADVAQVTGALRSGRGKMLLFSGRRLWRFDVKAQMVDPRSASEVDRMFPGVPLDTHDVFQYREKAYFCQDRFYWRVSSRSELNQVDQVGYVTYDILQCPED

As to `O=C(O)c1c[nH]c(CN(Cc2ccc(F)cc2)Cc2ccc(OCc3ccccc3)cc2)n1` [MMPI-1154], the myocardial infarct size entry in the assay on isolated rat hearts is recorded as “reduced myocardial infarct size significanly”. For the same molecule, the negative-log IC50 (pIC50) was 4.89 at MMP-9, 5.00 at MMP-1, 5.74 on MMP-13 and 5.18 in assay [1] (Table 2). In addition, the “selectivity over MMP-1” value in assay [1] (MMP-2 vs MMP-1, Table 2 values) is recorded as 1.5 fold.

As usually defined, the pIC50 is the negative decadic logarithm of the IC50, by convention in mol/L. A low value points to a high IC50.
